Experimental data reported in patent US8895745B2, “Bicyclic heterocyclic compounds as FGFR inhibitors” (Astex Therapeutics Limited, priority 2006, dated 2014).
Structures can show the parent of a compound that is named as a salt.

tested on: LP-1 cell line; assay: Cell-based pERK ELISA method, LP-1 cells; settings: Homo sapiens, LP-1, read-out: IC50 less than 1 μM or at least 50% inhibition at a concentration of 1 μM, LP-1 pERK ELISA
Description: LP-1 or JIM-1 multiple myeloma cells were seeded in 96 well plates at 1×10^6 cells/ml in 200 ul per well in serum free media. […] Cells were incubated for 16 h at 37° C. prior to the addition of a test compound for 30 minutes. Test compounds were administered at a 0.1% final DMSO concentration. […] ELISA plates and standards were prepared according o the standard DuoSet protocols and the relative amounts of pERK to total ERK in each sample calculated according to the standard curve.
In particular, compounds of the invention were tested against the LP-1 cell line (DSMZ no.: ACC 41) derived from human multiple myeloma.

| IC50 [µM] | SMILES |
| --- | --- |
| < 1 | O=C(NCC(F)(F)F)Nc1cccc(-n2cnc3cc(-c4ccc(F)cc4)cnc32)c1 [Example 179] |
| < 1 | COc1ncc(-c2cnc3c(-c4cccc(NC(=O)NCC(F)(F)F)c4)cnn3c2)cn1 [Example 151, 1-{3-[6-(2-Methoxy-pyrimidin-5-yl)-pyrazolo[1,5-a]pyrimidin-3-yl]-phenyl}-3-(2,2,2-trifluoro-ethyl)-urea] |
| < 1 | CCNC(=O)Nc1cccc(-c2cnc3cc(-c4ccc(N5CCCCC5)nc4)ccn23)c1 [Example 58, 1-Ethyl-3-{3-[7-(3,4,5,6-tetrahydro-2H-[1,2′]bipyridinyl-5′-yl)-imidazo[1,2-a]pyridin-3-yl]-phenyl}-urea hydro-chloride salt] |
| < 1 | O=C(NCC(F)(F)F)Nc1cccc(-c2cnc3cc(-c4ccc(=O)n(CCCN5CCCCC5)c4)ccn23)c1 [Example 208, 1-(3-{7-[6-Oxo-1-(3-piperidin-1-yl-propyl)-1,6-dihydro-pyridin-3-yl]-imidazo[1,2-a]pyridin-3-yl}-phenyl)-3-(2,2,2-trifluoro-ethyl)-urea Hydrochloride] |
| < 1 | CCNC(=O)Nc1cccc(-c2cnc3cc(-c4ccnc(OC)c4)ccn23)c1 [Example 45, 1-Ethyl-3-{3-[7-(2-methoxy-pyridin-4-yl)-imidazo[1,2-a]pyridin-3-yl]-phenyl}-urea] |
| < 1 | COC1CCCN(c2ccn3c(-c4cccc(NC(=O)NCC(F)(F)F)c4)cnc3c2)C1 (racemic) [Example 203, (±)-1-{3-[7-(3-Methoxy-piperidin-1-yl)-imidazo[1,2-a]pyridin-3-yl]-phenyl}-3-(2,2,2-trifluoro-ethyl)-urea] |
| < 1 | CCNC(=S)Nc1cccc(-c2cnc3cc(-c4cccc(CN5CCN(C)CC5)c4)ccn23)c1 [Example 29, 1-Ethyl-3-(3-{7-[3-(4-methyl-piperazin-1-ylmethyl)-phenyl]-imidazo[1,2-a]pyridin-3-yl}-phenyl)-thiourea] |
| < 1 | CCNC(=O)Nc1cccc(-c2cnc3cc(-c4cccc(CN5CCCCC5)c4)ccn23)c1 [Example 35, 1-Ethyl-3-{3-[7-(3-piperidin-1-ylmethyl-phenyl)-imidazo[1,2-a]pyridin-3-yl]-phenyl}-urea] |
| < 1 | CCNC(=O)Nc1cccc(-c2cnc3cc(-c4ccc(N5CCNCC5)cc4)ccn23)c1 [Example 57, 1-Ethyl-3-{3-[7-(4-piperazin-1-yl-phenyl)-imidazo[1,2-a]pyridin-3-yl]-phenyl}-urea hydro-chloride salt] |
| < 1 | CCC(=O)Nc1cccc(-c2cnc3cc(-c4ccc(F)cc4)ccn23)c1 [Example 64, N-{3-[7-(4-Fluoro-phenyl)-imidazo[1,2-a]pyridin-3-yl]-phenyl}-propionamide] |
| < 1 | O=C(NCC(F)(F)F)Nc1cccc(-c2cnn3cc(-c4cccc(C(=O)N5CCOCC5)c4)cnc23)c1 [Example 165, 1-(3-{6-[3-(Morpholine-4-carbonyl)-phenyl]-pyrazolo[1,5-a]pyrimidin-3-yl}-phenyl)-3-(2,2,2-trifluoro-ethyl)-urea] |
| < 1 | COc1cc(-c2ccn3c(-c4cccc(NC(=O)NCC(F)(F)F)c4)cnc3c2)ccc1F [Example 142, 1-{3-[7-(4-Fluoro-3-methoxy-phenyl)-imidazo[1,2-a]pyridin-3-yl]-phenyl}-3-(2,2,2-trifluoro-ethyl)-urea Hydrochloride] |
| < 1 | COc1cccc(-c2ccn3c(-c4cccc(NC(=O)NCC(F)(F)F)c4)cnc3c2)c1 [Example 279, 1-{3-[7-(3-Methoxy-phenyl)-imidazo[1,2-a]pyridin-3-yl]-phenyl}-3-(2,2,2-trifluoro-ethyl)-urea] |
| < 1 | Cn1cc(-c2ccn3c(-c4cccc(NC(=O)NCC(F)(F)F)c4)cnc3c2)cn1 [Example 128, 1-{3-[7-(1-Methyl-1H-pyrazol-4-yl)-imidazo[1,2-a]pyridin-3-yl]-phenyl}-3-(2,2,2-trifluoro-ethyl)-urea formate] |
| < 1 | Cc1ccc(-c2ccn3c(-c4cccc(NC(=O)NCC(F)(F)F)c4)cnc3c2)s1 [Example 270, 1-{3-[7-(5-Methyl-thiophen-2-yl)-imidazo[1,2-a]pyridin-3-yl]-phenyl}-3-(2,2,2-trifluoro-ethyl)-urea formate] |
| < 1 | CCNC(=O)Nc1cccc(-c2cnc3cc(-c4ccc(N(C)C)nc4)ccn23)c1 [Example 80, 1-{3-[7-(6-Dimethylamino-pyridin-3-yl)-imidazo[1,2-a]pyridin-3-yl]-phenyl}-3-ethyl-urea formate salt] |

| IC50 [µM] | SMILES |
| --- | --- |
| < 1 | O=C(NCCF)Nc1cccc(-c2cnc3cc(-c4ccc(F)cc4)ccn23)c1 [Example 134, 1-(2-Fluoro-ethyl)-3-{3-[7-(4-fluoro-phenyl)-imidazo[1,2-a]pyridin-3-yl]-phenyl}-urea Hydrochloride] |
| < 1 | O=C(NCC(F)(F)F)Nc1cccc(-c2cnc3cc(-c4cccc(CN5CCOCC5)c4)ccn23)c1 [Example 184, 1-{3-[7-(3-Morpholin-4-ylmethyl-phenyl)-imidazo[1,2-a]pyridin-3-yl]-phenyl}-3-(2,2,2-trifluoro-ethyl)-urea Hydrochloride] |
| < 1 | CC(NC(=O)Nc1cccc(-c2cnc3cc(-c4ccc(F)cc4)ccn23)c1)C(F)(F)F (stereo not shown) [Example 246, 1-{3-[7-(4-Fluoro-phenyl)-imidazo[1,2-a]pyridin-3-yl]-phenyl}-3-(2,2,2-trifluoro-1-methyl-ethyl)-urea] |
| < 1 | CCNC(=O)Nc1cccc(-c2cnc3cc(-c4cccc(CN5CCN(C)CC5)c4)ccn23)c1 [Example 227] |
| < 1 | Cc1ccc(-c2cnc3c(-c4cccc(NC(=O)NCC(F)(F)F)c4)cnn3c2)o1 [Example 180] |
| < 1 | COc1cc(NC(C)=O)cc(-c2cnc3cc(-c4cccc(CN5CCOCC5)c4)ccn23)c1 [Example 78, N-{3-Methoxy-5-[7-(3-morpholin-4-ylmethyl-phenyl)-imidazo[1,2-a]pyridin-3-yl]-phenyl}-acetamide] |
| < 1 | CC(C)NC(=O)c1cccc(-c2ccn3c(-c4cccc(NC(=O)NCC(F)(F)F)c4)cnc3c2)c1 [Example 267, N-Isopropyl-3-(3-{3-[3-(2,2,2-trifluoro-ethyl)-ureido]-phenyl}-imidazo[1,2-a]pyridin-7-yl)-benzamide] |
| < 1 | CC(=O)Nc1cccc(-c2cnc3ccc(-c4ccoc4)cn23)c1 [Example 104, N-[3-(6-Furan-3-yl-imidazo[1,2-a]pyridin-3-yl)-phenyl]-acetamide] |
| < 1 | O=C(NCC(F)(F)F)Nc1cccc(-c2cnc3cc(-c4cccc(OC5CCNCC5)c4)ccn23)c1 [Example 200, 1-(3-{7-[3-(Piperidin-4-yloxy)-phenyl]-imidazo[1,2-a]pyridin-3-yl}-phenyl)-3-(2,2,2-trifluoro-ethyl)-urea] |
| < 1 | O=C(NCC(F)(F)F)Nc1cccc(-c2cnc3cc(-c4nnco4)ccn23)c1 [Example 330, 1-[3-(7-[1,3,4]Oxadiazol-2-yl-imidazo[1,2-a]pyridin-3-yl)-phenyl]-3-(2,2,2-trifluoro-ethyl)-urea] |
| < 1 | CCNC(=O)Nc1cncc(-c2cnn3cc(-c4ccc(F)cc4)cnc23)c1 [Example 197, 1-Ethyl-3-{5-[6-(4-fluoro-phenyl)-pyrazolo[1,5-a]pyrimidin-3-yl]-pyridin-3-yl}-urea] |
| < 1 | CNC(=O)/C=C/c1ccn2c(-c3cccc(NC(=O)NCC(F)(F)F)c3)cnc2c1 [Example 344, (E)-N-Methyl-3-(3-{3-[3-(2,2,2-trifluoro-ethyl)-ureido]-phenyl}-imidazo[1,2-a]pyridin-7-yl)-acrylamide] |
| < 1 | CC(=O)Nc1cccc(-c2cnc3cc(-c4cccc(CO)c4)ccn23)c1 [Example 8, N-{3-[7-(3-Hydroxymeth-yl-phenyl)-imidazo[1,2-a]pyridin-3-yl]-phenyl}-acetamide] |
| < 1 | O=C(NCCF)Nc1cccc(-c2cnn3cc(-c4ccc(F)cc4)cnc23)c1 [Example 140, 1-(2-Fluoro-ethyl)-3-{3-[6-(4-fluoro-phenyl)-pyrazolo[1,5-a]pyrimidin-3-yl]-phenyl}-urea] |
| < 1 | COC(=O)Nc1cccc(-c2cnc3cc(-c4ccc(F)cc4)ccn23)c1 [Example 16, {3-[7-(4-Fluoro-phenyl)-imidazo[1,2-a]pyridin-3-yl]-phenyl}-carbamic acid methyl ester formate salt] |
| < 1 | CNC(=O)c1cccc(-c2ccn3c(-c4cccc(NC(=O)NCC(F)(F)F)c4)cnc3c2)c1 [Example 247, N-Methyl-3-(3-{3-[3-(2,2,2-trifluoro-ethyl)-ureido]-phenyl}-imidazo[1,2-a]pyridin-7-yl)-benzemide Formate] |

same assay, conditions: Homo sapiens, LP-1, read-out: LP-1 pERK ELISA (μM)

| IC50 [µM] | SMILES |
| --- | --- |
| 0.143 | Cc1nnc(-c2ccn3c(-c4cccc(NC(=O)NCC(F)(F)F)c4)cnc3c2)o1 [Example 329, 1-{3-[7-(5-Methyl-[1,3,4]oxadiazol-2-yl)-imidazo[1,2-a]pyridin-3-yl]-phenyl}-3-(2,2,2-trifluoro-ethyl)-urea] |
| 0.065 | CC#Cc1ccn2c(-c3cccc(NC(=O)NCC(F)(F)F)c3)cnc2c1 [Example 396, 1-[3-(7-Prop-1-ynyl-imidazo[1,2-a]pyridin-3-yl)-phenyl]-3-(2,2,2-trifluoro-ethyl)-urea] |
| 0.0021 | O=C(NCC(F)(F)F)Nc1cccc(-c2cnc3cc(-c4ccc(F)cc4)ccn23)c1 [Example 59, 1-{3-[7-(4-fluoro-phenyl)-imidazo[1,2-a]pyridin-3-yl]-phenyl}-3-(2,2,2-trifluoro-ethyl)-urea] |
| 0.022 | Cc1nsc(-c2ccn3c(-c4cccc(NC(=O)NCC(F)(F)F)c4)cnc3c2)n1 [Example 399, 1-{3-[7-(3-Methyl-[1,2,4]thiadiazol-5-yl)-imidazo[1,2-a]pyridin-3-yl]-phenyl}-3-(2,2,2-trifluoro-ethyl)-urea] |

| SMILES | IC50 [µM] |
| --- | --- |
| Cc1c(-c2ccn3c(-c4cccc(NC(=O)NCC(F)(F)F)c4)cnc3c2)nnn1C [Example 378, 1-{3-[7-(1,5-Dimethyl-1H-[1,2,3]triazol-4-yl)-imidazo[1,2-a]pyridin-3-yl]-phenyl}-3-(2,2,2-trifluoro-ethyl)-urea formate] | 0.016 |
